How the values were obtained:
[1] = system: peptide-specific IgG in the serum; assay: ELISA of peptide-specific IgG in sera of HCV patients and healthy donors (Example 1); type: binding, human; details: ELISA, cut-off value 1.83; for Healthy donors (n = 10) Positive n: number of 10 healthy donors with serum IgG reactive to the peptide; for HCV patients (n = 12) Positive n: number of 12 HCV patients with serum IgG reactive to the peptide; for Healthy donors (n = 10) Positive %: share of 10 healthy donors with serum IgG reactive to the peptide; for HCV patients (n = 12) Positive %: share of 12 HCV patients with serum IgG reactive to the peptide
Description: Synthetic peptides having an HLA-A2-binding motif or an HLA-A24-binding motif from a conserved region of HCV genotype 1b protein were used in this study (Table 1). A peptide derived from HIV having an HLA-A2-binding motif was used as a negative control. All of these peptides were purchased from a commercially supplier. The purity was analyzed by reverse-phase high-pressure liquid chromatography and found to be 90% or higher.
The level of the peptide-specific IgG in the serum was measured by ELISA. First, each peptide was dissolved in dimethyl sulfoxide (DMSO) and stored at −80° C. The peptide was diluted with 0.1 M sodium carbonate/sodium bicarbonate solution containing disuccinimidyl suberate (DSS) as a crosslinker. An ELISA plate was coated with 20 μg/well of peptide at 4° C. overnight. The wells were washed 3 times with 0.05% Tween 20/PBS (PBST), and the plate was blocked with Block Ace (registered trademark) and left overnight at 4° C. Plasma or serum samples were diluted in 1:100, 1:200 and 1:400 with 0.05% Tween 20/Block Ace, and 100 μl of each of the samples was added to each well. After the samples were incubated at 37° C. for 2 hours, the plate was washed 9 times with PBST, 100 μl of a 1:1000 diluted rabbit anti-human IgG (γ-chain specific) was added to each well, and incubated at 37° C. for 2 hours. The plate was washed 9 times with PBST, and 100 μl of 1:100 diluted mouse anti-rabbit IgG conjugated to a horseradish peroxidase-dextran polymer was added to each well, and then the plate was incubated at room temperature for 40 minutes. After the plate was washed, 100 μl of a tetramethylbenzidine substrate solution was added to each well. The reaction was stopped by the addition of 2.0 M phosphoric acid. The cutoff value was calculated as the mean±3 SD of the optical density values of the control obtained from the healthy donors.
The level of IgG that reacts with each of the 62 types of peptides was measured in the sera from 12 patients infected with HCV and 10 healthy donors (HDs) (Table 1).

[2] = system: peptide-specific IgG; assay: ELISA screening of peptide-reactive IgG in plasma of 12 HCV-1b patients and 10 HDs (Example 2); type: binding, human; details: plasma dilution 1:100; for Reactivity to peptide-specific IgG HD (n = 10): number of 10 HDs above cut-off 0.18 OD; for Reactivity to peptide-specific IgG Patients (n = 12): number of 12 HCV-1b+ patients above cut-off 0.18 OD
Description: Forty-four types of synthetic peptides that were derived from a highly conserved region of HCV-1b protein and selected based on a high binding score to HLA-A24 molecule (Bioinformatics and Molecular Analysis Section, NIH, Bethesda, Md.) were used. A peptide derived from HIV that has an HLA-A24 binding motif ([…] (SEQ ID NO: 63)) served as a negative control. For the screening of the reactivity of peptide to serum IgG, desalted grade of the peptides (>70%) were purchased from BioSynthesis (Lewisville, Tex.) or SynPep (Dublin, Calif.). A purified peptide (>90%) was used in the subsequent experiments. The plasma level of peptide-specific IgG was measured by an enzyme-linked immunosorbent assay (ELISA). The specificity of anti-peptide IgG in a plasma sample was tested by the absorption and elution of peptide-reactive IgG.
In order to screen for a humoral response to the peptides, the level of IgG reactive to each of the 44 types of peptides was assayed in the plasma of 12 patients infected with HCV-1b. The plasma of 10 HDs was used as a negative control. The level of peptide-reactive IgG was measured by ELISA for serially diluted plasma samples and reported by the values of absorbance (OD) of each sample. The cut-off value of these peptides at a plasma dilution of 1:100 was set at 0.18 OD (mean (0.08)+2SD (0.05×2) of 10 HDs). A significant level (>0.18 OD at a plasma dilution of 1:100) of IgG reactive to NS5A-2132, C-176, E2-488, E1-213, C-173 and NS3-1081 peptides were detectable in the plasma of 12, 11, 10, 9, 8 and 5 patients among the 12 patients, respectively (FIG. 9). As expected, none of these peptides was reactive to the plasma from the 10 HDs.

Substance | Healthy donors (n = 10) Positive n [1] | HCV patients (n = 12) Positive n [1] | Healthy donors (n = 10) Positive % [1] | HCV patients (n = 12) Positive % [1] | Reactivity to peptide-specific IgG HD (n = 10) [2] | Reactivity to peptide-specific IgG Patients (n = 12) [2]
57 (NLPGCSFSI; Hepatitis C Virus) [Peptide 57] | 1 | 0 | 10% | 0% | – | –
61 (HYRDVLKEM; Hepatitis C Virus) [Peptide 61] | 1 | 3 | 10% | 25% | – | –
62 (WFMWCLLLL; Hepatitis C Virus) [Peptide 62] | 0 | 7 | 0% | 58% | – | –
66 (QFKQKALGLL; Hepatitis C Virus) [Peptide 66] | 0 | 3 | 0% | 25% | – | –
AFTASITSPL [No. 35] | – | – | – | – | 0 | 0
AFYGVWPLL [No. 63] | – | – | – | – | 0 | 0
AYAAQGYKVL [No. 24] | – | – | – | – | 0 | 2
AYALYGVWPL [No. 26] | – | – | – | – | 0 | 2
AYMSKAHGI [No. 11] | – | – | – | – | 0 | 2
AYSQQTRGL [No. 8] | – | – | – | – | 0 | 0
DFKTWLQSKL [No. 36] | – | – | – | – | 0 | 1
EFWESVFTGL [No. 31] | – | – | – | – | 0 | 0
EYVLLLFLL [No. 4] | – | – | – | – | 0 | 2
FFTEVDGVRL [No. 37] | – | – | – | – | 0 | 1
GYGAGVAGAL [No. 23] | – | – | – | – | 0 | 2
GYIPIVGAPL [No. 19] | – | – | – | – | 0 | 1
HYKLFLARL [No. 9] | – | – | – | – | 0 | 0
HYPCTVNFTI [No. 27] | – | – | – | – | 0 | 2
HYRDVLKEM [No. 61] | – | – | – | – | 1 | 3
HYVQMALMKL [No. 21] | – | – | – | – | 0 | 3
IFTITKILL [No. 18] | – | – | – | – | 0 | 3

Substance | Healthy donors (n = 10) Positive n [1] | HCV patients (n = 12) Positive n [1] | Healthy donors (n = 10) Positive % [1] | HCV patients (n = 12) Positive % [1] | Reactivity to peptide-specific IgG HD (n = 10) [2] | Reactivity to peptide-specific IgG Patients (n = 12) [2]
LFLARLIWWL [No. 33] | – | – | – | – | 0 | 0
LYGVWPLLL [No. 7] | – | – | – | – | 0 | 0
MYTNVDQDL [No. 5] | – | – | – | – | 0 | 0
MYVGGVEHRL [No. 20] | – | – | – | – | 0 | 0
NFISGIQYL [No. 15] | – | – | – | – | 0 | 0
PYFVRAHGL [No. 16] | – | – | – | – | 0 | 0
PYIEQGMQL [No. 14] | – | – | – | – | 0 | 1
QFKQKAIGL [No. 17] | – | – | – | – | 0 | 3
QFKQKALGL [No. 64] | – | – | – | – | 0 | 1
QFKQKALGLL [No. 66] | – | – | – | – | 0 | 1
QYLAGLSTL [No. 6] | – | – | – | – | 0 | 0
QYSPGQRVEF [No. 65] | – | – | – | – | 0 | 0
SFAIKWEYVL [No. 39] | – | – | – | – | 0 | 1
SYTWTGALI [No. 60] | – | – | – | – | 0 | 0
TFLVGLNQYL [No. 29] | – | – | – | – | 0 | 2
TYATYGKFL [No. 10] | – | – | – | – | 0 | 1
TYVYDHLTPL [No. 22] | – | – | – | – | 0 | 2
VFVGLILLTL [No. 30] | – | – | – | – | 0 | 2
WFMWCLLLL [No. 62] | – | – | – | – | 0 | 3
YFITRAEAHL [No. 34] | – | – | – | – | 1 | 1
YYRGLDVSVI [No. 28] | – | – | – | – | 0 | 2
